This passage reports Ki, Kb and inhibition results from ChEMBL document CHEMBL3091289, “Design of fluorinated 5-HT(4)R antagonists: influence of the basicity and lipophilicity toward the 5-HT(4)R binding affinities” (Bioorg Med Chem, 2013).

Experiment [1] deals with 5-hydroxytryptamine receptor 7 (Homo sapiens, UniProt P34969). The experiment is described as follows: Binding affinity to human 5HT7.
Experiment [2] concerns the target 5-hydroxytryptamine receptor 6 (Homo sapiens, UniProt P50406). Nature of the experiment: Binding affinity to human 5HT6.
Experiment [3] concerns the target 5-hydroxytryptamine receptor 5A (Homo sapiens, UniProt P47898). Nature of the experiment: Binding affinity to human 5HT5A.
For experiment [4], the target named is T1, 5-hydroxytryptamine receptor 3A (Homo sapiens, UniProt P46098).
T1 sequence (P46098 whole entry): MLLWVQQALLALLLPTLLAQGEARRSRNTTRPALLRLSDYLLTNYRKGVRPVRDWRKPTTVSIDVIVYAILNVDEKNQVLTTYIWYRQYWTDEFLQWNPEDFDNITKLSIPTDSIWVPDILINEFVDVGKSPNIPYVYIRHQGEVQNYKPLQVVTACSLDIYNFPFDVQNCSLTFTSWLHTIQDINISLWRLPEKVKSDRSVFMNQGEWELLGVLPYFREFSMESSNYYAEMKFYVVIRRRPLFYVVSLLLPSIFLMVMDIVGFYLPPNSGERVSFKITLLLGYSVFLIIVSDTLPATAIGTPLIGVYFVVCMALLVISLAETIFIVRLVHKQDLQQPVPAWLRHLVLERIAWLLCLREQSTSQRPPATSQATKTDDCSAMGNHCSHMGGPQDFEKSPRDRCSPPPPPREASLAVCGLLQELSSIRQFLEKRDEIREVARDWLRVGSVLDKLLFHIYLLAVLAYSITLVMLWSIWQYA
Nature of the experiment: Binding affinity to human 5HT3.

Experiment [5] has as its target 5-hydroxytryptamine receptor 2B (Homo sapiens, UniProt P41595). Nature of the experiment: Binding affinity to human 5HT2B.
For experiment [6], the target named is T2, 5-hydroxytryptamine receptor 2C (Homo sapiens, UniProt P28335).
T2 sequence (P28335 whole entry): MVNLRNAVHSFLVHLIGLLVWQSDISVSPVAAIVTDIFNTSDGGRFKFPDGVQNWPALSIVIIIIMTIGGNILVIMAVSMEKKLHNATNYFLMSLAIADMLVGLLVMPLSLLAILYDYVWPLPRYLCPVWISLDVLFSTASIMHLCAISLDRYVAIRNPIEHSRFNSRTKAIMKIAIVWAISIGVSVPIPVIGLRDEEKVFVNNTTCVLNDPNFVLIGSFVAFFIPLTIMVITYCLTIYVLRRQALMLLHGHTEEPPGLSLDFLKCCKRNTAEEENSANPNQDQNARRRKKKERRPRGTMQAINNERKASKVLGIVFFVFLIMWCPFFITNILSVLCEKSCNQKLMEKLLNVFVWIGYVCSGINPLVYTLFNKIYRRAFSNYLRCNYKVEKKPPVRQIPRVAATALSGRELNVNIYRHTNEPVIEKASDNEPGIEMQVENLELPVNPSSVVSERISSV
The experiment is described as follows: Binding affinity to human 5HT2C.

Experiment [7] concerns the target 5-hydroxytryptamine receptor 2A (Homo sapiens, UniProt P28223). Nature of the experiment: Binding affinity to human 5HT2A.
Experiment [8] deals with 5-hydroxytryptamine receptor 1D (Homo sapiens, UniProt P28221). The experiment is described as follows: Binding affinity to human 5HT1D.
Chain of 5-hydroxytryptamine receptor 1D (P28221 whole entry): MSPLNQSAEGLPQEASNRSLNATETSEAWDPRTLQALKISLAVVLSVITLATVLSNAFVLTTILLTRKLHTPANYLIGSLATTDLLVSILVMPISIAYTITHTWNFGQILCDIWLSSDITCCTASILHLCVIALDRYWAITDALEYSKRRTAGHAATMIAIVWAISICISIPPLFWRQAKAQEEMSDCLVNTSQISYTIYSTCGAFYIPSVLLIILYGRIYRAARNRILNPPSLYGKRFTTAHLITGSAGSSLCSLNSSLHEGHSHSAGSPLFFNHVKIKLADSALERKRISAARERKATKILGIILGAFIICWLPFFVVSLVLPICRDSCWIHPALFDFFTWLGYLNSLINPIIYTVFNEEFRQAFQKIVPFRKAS
For experiment [9], the target named is 5-hydroxytryptamine receptor 1B (Homo sapiens, UniProt P28222). Nature of the experiment: Binding affinity to human 5HT1B.
Chain of 5-hydroxytryptamine receptor 1B (P28222 whole entry): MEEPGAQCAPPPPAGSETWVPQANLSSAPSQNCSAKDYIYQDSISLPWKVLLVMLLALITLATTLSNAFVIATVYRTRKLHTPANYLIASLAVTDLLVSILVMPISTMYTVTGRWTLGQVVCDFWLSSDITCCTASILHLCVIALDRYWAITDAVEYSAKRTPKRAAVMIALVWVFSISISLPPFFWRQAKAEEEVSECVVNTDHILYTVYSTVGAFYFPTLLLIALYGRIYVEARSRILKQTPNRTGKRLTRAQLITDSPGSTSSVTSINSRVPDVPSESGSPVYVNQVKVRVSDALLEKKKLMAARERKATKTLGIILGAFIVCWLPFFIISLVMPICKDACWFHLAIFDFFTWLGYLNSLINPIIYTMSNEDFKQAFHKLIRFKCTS
Experiment [10] addresses T3, 5-hydroxytryptamine receptor 1A (Homo sapiens, UniProt P08908).
T3 sequence (P08908 whole entry): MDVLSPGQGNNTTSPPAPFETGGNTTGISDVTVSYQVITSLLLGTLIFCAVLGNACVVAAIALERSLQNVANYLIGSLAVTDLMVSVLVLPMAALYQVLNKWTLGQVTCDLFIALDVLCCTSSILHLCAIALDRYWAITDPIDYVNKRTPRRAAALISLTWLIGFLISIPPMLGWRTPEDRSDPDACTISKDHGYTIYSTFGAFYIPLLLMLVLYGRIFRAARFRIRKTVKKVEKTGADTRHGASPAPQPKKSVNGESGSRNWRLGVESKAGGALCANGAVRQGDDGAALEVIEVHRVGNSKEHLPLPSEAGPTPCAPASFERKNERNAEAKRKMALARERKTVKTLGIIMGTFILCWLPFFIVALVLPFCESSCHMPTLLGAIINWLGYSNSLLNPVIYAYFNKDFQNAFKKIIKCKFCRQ
Nature of the experiment: Binding affinity to human 5HT1A.

The target in experiment [11] is T4, 5-hydroxytryptamine receptor 4 (Homo sapiens, UniProt Q13639). The experiment is described as follows: Intrinsic activity at human 5HT4R.
T4 sequence (Q13639 whole entry): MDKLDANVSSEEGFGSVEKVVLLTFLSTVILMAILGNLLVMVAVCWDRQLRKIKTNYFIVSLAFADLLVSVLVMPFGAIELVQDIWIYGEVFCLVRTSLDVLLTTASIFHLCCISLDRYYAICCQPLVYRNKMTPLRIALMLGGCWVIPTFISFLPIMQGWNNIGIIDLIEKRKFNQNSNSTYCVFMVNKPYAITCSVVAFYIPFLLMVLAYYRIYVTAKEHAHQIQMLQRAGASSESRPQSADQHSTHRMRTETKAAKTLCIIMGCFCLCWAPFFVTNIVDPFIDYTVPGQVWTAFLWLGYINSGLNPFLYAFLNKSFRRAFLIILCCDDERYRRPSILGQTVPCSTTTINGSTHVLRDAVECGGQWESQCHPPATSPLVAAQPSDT
Experiment [12] deals with T4, 5-hydroxytryptamine receptor 4. Nature of the experiment: Binding affinity to human 5HT4R.
Experiment [13] has as its target 5-hydroxytryptamine receptor 4 (Cavia porcellus) (UniProt O70528). Nature of the experiment: Displacement of [3H]GR113808 from 5HT4R in guinea pig striatal membranes at 10^-8 M. The class given is cell membranes. The conditions noted are these: Striatum, Membrane.
Experiment [14] has as its target 5-hydroxytryptamine receptor 4 (Cavia porcellus, UniProt O70528). The experiment is described as follows: Displacement of [3H]GR113808 from 5HT4R in guinea pig striatal membranes. The class given is cell membranes, Striatum, Membrane. On the technique in general: In a radioligand displacement assay an active substance lowers the binding of a labelled ligand.
The target in experiment [15] is 5-hydroxytryptamine receptor 4 (Cavia porcellus) (UniProt O70528). Nature of the experiment: Displacement of [3H]GR113808 from 5HT4R in guinea pig striatal membranes at 10^-6 M. The class given is cell membranes. The conditions noted are these: Striatum, Membrane.
Chain of 5-hydroxytryptamine receptor 4 (Cavia porcellus) (O70528 whole entry): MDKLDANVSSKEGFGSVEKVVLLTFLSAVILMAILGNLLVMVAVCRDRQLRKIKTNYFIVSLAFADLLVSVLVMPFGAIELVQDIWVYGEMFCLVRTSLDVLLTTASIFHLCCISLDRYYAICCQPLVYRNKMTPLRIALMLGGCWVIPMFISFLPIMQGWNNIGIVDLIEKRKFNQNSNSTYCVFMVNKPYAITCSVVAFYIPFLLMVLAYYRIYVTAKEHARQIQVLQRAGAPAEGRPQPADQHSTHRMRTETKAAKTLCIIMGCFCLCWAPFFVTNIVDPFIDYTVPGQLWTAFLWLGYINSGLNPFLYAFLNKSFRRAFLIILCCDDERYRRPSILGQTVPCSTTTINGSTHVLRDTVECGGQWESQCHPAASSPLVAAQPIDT

Bounds are passed on as bounds.

A word on the Ki: it is a measure of affinity in units of concentration, obtained from inhibition or displacement. The low end stands for a stronger hold on the target, the high end for a looser hold on the target. As usually defined, the inhibition is how much of the control response was suppressed. A low value points to a response near the control.

Chain of 5-hydroxytryptamine receptor 4 (Cavia porcellus, UniProt O70528) (O70528 whole entry): as above
Chain of 5-hydroxytryptamine receptor 2B (P41595 whole entry): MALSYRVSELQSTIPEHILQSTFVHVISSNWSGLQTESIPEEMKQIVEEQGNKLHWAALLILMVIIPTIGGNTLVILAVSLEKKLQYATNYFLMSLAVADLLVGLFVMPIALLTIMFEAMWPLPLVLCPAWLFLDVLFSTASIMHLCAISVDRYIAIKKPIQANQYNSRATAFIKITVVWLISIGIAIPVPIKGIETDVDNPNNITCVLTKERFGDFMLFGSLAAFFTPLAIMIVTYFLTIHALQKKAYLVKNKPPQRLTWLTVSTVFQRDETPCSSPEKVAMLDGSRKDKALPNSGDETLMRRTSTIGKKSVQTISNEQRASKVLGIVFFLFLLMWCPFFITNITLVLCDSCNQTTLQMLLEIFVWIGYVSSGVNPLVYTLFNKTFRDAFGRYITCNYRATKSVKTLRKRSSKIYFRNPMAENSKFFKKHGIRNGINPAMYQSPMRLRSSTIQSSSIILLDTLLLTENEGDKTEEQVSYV
Chain of 5-hydroxytryptamine receptor 7 (P34969 whole entry): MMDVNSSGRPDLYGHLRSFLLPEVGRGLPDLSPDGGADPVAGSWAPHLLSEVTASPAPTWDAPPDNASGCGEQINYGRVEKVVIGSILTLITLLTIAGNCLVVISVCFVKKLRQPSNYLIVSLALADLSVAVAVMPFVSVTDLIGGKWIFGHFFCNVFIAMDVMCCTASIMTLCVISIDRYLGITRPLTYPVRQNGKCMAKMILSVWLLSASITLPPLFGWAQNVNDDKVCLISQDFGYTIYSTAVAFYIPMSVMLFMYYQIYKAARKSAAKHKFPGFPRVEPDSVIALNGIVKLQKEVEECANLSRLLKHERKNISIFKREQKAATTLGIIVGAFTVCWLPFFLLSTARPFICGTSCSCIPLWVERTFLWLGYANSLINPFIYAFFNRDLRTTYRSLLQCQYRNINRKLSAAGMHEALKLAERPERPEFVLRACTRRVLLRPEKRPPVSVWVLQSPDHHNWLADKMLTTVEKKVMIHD
Chain of 5-hydroxytryptamine receptor 5A (P47898 whole entry): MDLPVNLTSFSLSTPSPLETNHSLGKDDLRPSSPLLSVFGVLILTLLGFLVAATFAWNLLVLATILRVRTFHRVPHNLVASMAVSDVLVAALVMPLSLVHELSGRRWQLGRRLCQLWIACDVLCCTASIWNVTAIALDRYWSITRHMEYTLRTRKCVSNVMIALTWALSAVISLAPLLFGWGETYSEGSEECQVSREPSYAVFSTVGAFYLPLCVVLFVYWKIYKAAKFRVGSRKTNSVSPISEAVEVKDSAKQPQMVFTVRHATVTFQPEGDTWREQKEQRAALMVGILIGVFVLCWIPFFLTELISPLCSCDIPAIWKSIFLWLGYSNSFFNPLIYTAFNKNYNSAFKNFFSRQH
Chain of 5-hydroxytryptamine receptor 2A (P28223 whole entry): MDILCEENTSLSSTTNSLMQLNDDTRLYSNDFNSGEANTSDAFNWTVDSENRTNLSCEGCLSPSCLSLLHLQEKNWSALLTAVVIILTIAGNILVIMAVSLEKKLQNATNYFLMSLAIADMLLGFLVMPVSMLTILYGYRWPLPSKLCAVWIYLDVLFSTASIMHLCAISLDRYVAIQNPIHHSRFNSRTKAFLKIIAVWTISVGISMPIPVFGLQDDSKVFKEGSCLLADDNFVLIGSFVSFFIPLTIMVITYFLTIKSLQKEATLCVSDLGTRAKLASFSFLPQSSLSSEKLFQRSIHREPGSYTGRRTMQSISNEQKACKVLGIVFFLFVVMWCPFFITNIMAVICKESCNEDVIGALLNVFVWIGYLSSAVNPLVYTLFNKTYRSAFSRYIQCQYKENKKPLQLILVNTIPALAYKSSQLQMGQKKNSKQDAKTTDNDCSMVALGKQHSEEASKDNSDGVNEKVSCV
Chain of 5-hydroxytryptamine receptor 6 (P50406 whole entry): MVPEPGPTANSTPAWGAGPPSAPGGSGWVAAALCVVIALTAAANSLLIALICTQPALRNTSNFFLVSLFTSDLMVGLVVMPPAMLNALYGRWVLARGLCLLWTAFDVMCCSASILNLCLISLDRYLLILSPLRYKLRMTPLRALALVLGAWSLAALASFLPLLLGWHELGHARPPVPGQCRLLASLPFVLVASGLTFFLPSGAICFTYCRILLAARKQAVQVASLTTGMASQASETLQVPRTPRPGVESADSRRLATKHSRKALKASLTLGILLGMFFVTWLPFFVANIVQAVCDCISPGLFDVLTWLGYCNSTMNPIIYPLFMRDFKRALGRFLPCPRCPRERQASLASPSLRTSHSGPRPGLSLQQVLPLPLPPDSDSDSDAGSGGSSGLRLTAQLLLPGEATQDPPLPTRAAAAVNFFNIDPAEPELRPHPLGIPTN

With `Fc1cccc2c1nc(OCC1CCN(CCCC(F)(F)F)CC1)c1cccnc12`, the Ki in [1] is > 10000 nM; in [2], > 10000 nM; in [3], > 10000 nM; in experiment [4], 2600 nM; in experiment [5], 190 nM; in experiment [6] it was 980 nM. For the same molecule, the Ki was 8700 nM in [7]; > 10000 nM in [8]; > 10000 nM in experiment [9]; > 10000 nM in [10]; 0.2 nM in [12]; 4.2 nM in [14]. The molecule further had a Kb in experiment [11] of 0.199 nM. In addition, the inhibition came to 80% in [13] and 100% in experiment [15].

In the case of `Fc1cccc2c1nc(OCC1CCN(CC(F)(F)F)CC1)c1ccccc12`, the figures for the inhibition in [13] and in experiment [15] were 0% and 3%, respectively.

For `FC(F)(F)C(F)(F)CN1CCC(COc2nc3ccccc3c3ccccc23)CC1`, the values for the inhibition in [13] and in experiment [15] were 0% and 1%, respectively.

As for `Fc1cccc2c1nc(OCC1CCN(CCC(F)(F)F)CC1)c1cccnc12`, the inhibition constant (Ki) in experiment [1] was > 10000 nM; in [2], > 10000 nM; in experiment [3], > 10000 nM; in experiment [4] it was 1200 nM; in experiment [5], 230 nM; in [6] it was > 10000 nM. Besides, the Ki in experiment [7] was > 10000 nM; in experiment [8], > 10000 nM; in experiment [9] it was > 10000 nM; in [10], > 10000 nM; in [12], 0.11 nM; in [14], 9 nM. Besides, the Kb in experiment [11] amounted to 0.079 nM. Besides, the inhibition in experiment [13] worked out at 80%; in experiment [15], 100%.

With `Fc1cccc2c1nc(OCC1CCN(CCCC(F)(F)F)CC1)c1ccccc12`, the results for the inhibition in [13] and in [15] were 49% and 100%, respectively. Further, the Ki in experiment [14] amounted to 14.1 nM.

With `Fc1cccc2c1nc(OCC1CCN(CCC(F)(F)F)CC1)c1ccccc12`, the inhibition in experiment [13] stood at 61%; in experiment [15], 100%. In experiment [14], this molecule gave a Ki of 22 nM.

Consider `FC(F)(F)CN1CCC(COc2nc3ccccc3c3ccccc23)CC1`, for which the inhibition in experiment [13] worked out at 0%; in experiment [15] it was 1%.

Consider `Fc1cccc2c1nc(OCC1CCN(CC(F)(F)C(F)(F)F)CC1)c1ccccc12`, for which the values for the inhibition in [13] and in [15] were 0% and 4%, respectively.

In the case of `CCCN1CCC(COc2nc3c(F)cccc3c3ncccc23)CC1`, in experiment [13], the inhibition amounted to 94%.

Consider `Fc1cccc2c1nc(OCC1CCN(CC(F)F)CC1)c1ccccc12`, for which the inhibition in experiment [13] worked out at 0%; in [15], 93%.

With `FC(F)CN1CCC(COc2nc3ccccc3c3ccccc23)CC1`, the inhibition was 0% in [13] and 58% in [15].

In the case of `Fc1cccc2c1nc(OCC1CCN(CC(F)F)CC1)c1cccnc12`, the inhibition in [13] is 26%; in experiment [15], 100%. In addition, the affinity in experiment [14] corresponds to a Ki of 91.4 nM.
